This is an account of results in US8742106B2 (Novartis AG, priority 2009, dated 2014).

Test [1] addresses human orexin 2 receptors (Homo sapiens (Human), UniProt O43614). Kind of test: Calcium Accumulation in Cells (FLIPR), antagonism of orexin A. Type of test: cell-based. Particulars: for Ki: antagonism of orexin A, Cheng-Prusoff corrected, read-out: FLIPR hOx2R Ki; for inhibition at 10 µM: measured at a concentration of 10 μM of compound, read-out: FLIPR hOx2R % inhibition value. How it is done: (§1) Calcium Accumulation in Cells (FLIPR):
Cells expressing human orexin 1 or human orexin 2 receptors, were seeded at 8,000 cells/well in 384 well black-walled clear bottom, poly-D-lysine coated plates.
On the day of the experiment, the cells seeded in black plates were treated with assay buffer containing the Ca^2+ sensitive fluorescent dye Fluo4-AM (2 μM), and probenecid (0.1 mM). After 1 h plates were washed twice with, and resuspended in, assay buffer containing probenecid (0.1 mM) using a multi plate washer. […] Fluorescence measurements were then continued every 1 S for 120 S followed by every 4 S for 240 S.
(§2) The measurements were typically made in two sequences:
(§3) In the first round, compounds of formula (I) or (I′) were tested alone, to detect possible agonist activity. Compounds of formula I or I′ were tested usually in a concentration range from 10^−9 M to 10^−5 M.
(§4) In the second round, performed one hour later (to allow for equilibration), Orexin A was tested either in the absence (calibration curves, Orexin A agonist controls) or in the presence of compounds of formula (I) or (I′) to determine antagonism.

Test [2] addresses human orexin 1 receptors (Homo sapiens (Human), UniProt O43613). Described as above. The note with it: for Ki: antagonism of orexin A, Cheng-Prusoff corrected, read-out: FLIPR hOx1R Ki; for inhibition at 10 µM: measured at a concentration of 10 μM of compound, read-out: FLIPR hOx1R % inhibition value. It counts as cell-based. How it is done: as §1
Cells expressing human orexin 1 or human orexin 2 receptors, were seeded at 8,000 cells/well in 384 well black-walled clear bottom, poly-D-lysine coated plates. After 24 h, the medium was removed and cells were washed once with phosphate buffered saline and serum-deprived overnight in assay buffer (130 mM NaCl, 5.4 mM KCl, 1.8 mM CaCl2, 0.8 mM MgSO4, 0.9 mM NaH2PO4, 25 mM glucose, 20 mM HEPES, pH 7.4) containing bovine serum albumin (1% w/v).
On the day of the experiment, the cells seeded in black plates were treated with assay buffer containing the Ca^2+ sensitive fluorescent dye Fluo4-AM (2 μM), and probenecid (0.1 mM). After 1 h plates were washed twice with, and resuspended in, assay buffer containing probenecid (0.1 mM) using a multi plate washer. The plates were placed into a FLIPR II (Fluorometric Imaging Plate Reader, Molecular Devices, Sunnyvale, Calif., USA) and baseline fluorescence (fluorescence light units, FLU) was measured (5 measurements, 2 S each; laser excitation 488 nm at 0.6-1 W, CCD camera exposure 0.4 s) before addition of buffer alone (basal) or containing test compounds (either compound of formula (I) or (I′) alone, agonist alone or agonist in the presence of various concentrations of compounds of formula (I) or (I′)). Fluorescence measurements were then continued every 1 S for 120 S followed by every 4 S for 240 S.
as §2, §3, §4

Chain of human orexin 2 receptors (O43614 whole entry): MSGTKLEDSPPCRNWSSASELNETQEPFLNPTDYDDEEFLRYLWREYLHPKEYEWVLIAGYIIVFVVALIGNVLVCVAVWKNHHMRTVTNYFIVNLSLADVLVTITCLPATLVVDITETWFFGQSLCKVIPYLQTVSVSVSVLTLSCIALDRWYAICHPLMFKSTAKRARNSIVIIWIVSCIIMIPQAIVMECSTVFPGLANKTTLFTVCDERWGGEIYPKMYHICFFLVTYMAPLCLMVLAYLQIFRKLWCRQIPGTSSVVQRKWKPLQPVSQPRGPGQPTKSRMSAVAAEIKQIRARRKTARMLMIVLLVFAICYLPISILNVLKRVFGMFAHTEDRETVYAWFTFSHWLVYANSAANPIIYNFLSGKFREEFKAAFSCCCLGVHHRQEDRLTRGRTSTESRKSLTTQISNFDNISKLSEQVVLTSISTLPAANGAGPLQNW
Chain of human orexin 1 receptors (O43613 whole entry): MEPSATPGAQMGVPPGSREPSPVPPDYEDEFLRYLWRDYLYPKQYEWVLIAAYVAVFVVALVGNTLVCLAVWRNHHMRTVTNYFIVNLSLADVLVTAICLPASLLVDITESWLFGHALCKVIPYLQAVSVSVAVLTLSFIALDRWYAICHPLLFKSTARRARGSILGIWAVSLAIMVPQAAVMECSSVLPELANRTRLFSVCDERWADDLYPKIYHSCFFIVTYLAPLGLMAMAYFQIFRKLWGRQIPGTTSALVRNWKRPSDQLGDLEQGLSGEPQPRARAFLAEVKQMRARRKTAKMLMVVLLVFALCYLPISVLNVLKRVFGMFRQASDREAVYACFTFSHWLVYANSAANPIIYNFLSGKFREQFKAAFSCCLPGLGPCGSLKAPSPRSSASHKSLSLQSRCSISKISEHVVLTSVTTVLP

In general, Ki refers to a dissociation constant, usually derived from enzyme kinetics or from competition with a known ligand. `C[C@H](NC(=O)COc1cc(C2CC2)c2c(-c3ccccc3)nn(C)c2n1)c1ccccc1` [Example 1.47, (S)-2-(4-cyclopropyl-1-methyl-3-phenyl-1H-pyrazolo[3,4-b]pyridin-6-yloxy)-N-(1-phenylethyl)acetamide]: the Ki in test [1] stood at 561 nM; in test [2] it was 441 nM.

As to `Cc1cc(OCC(=O)NC(C)c2ccc3[nH]ccc3c2)nc2c1c(C1CC1)nn2C` (stereo not drawn) [Example 7.17, N-(1-(1H-indol-5-yl)ethyl)-2-(3-cyclopropyl-1,4-dimethyl-1H-pyrazolo[3,4-b]pyridin-6-yloxy)acetamide], the Ki in test [1] came to 94 nM; in test [2], 414 nM.

The term inhibition denotes the relative decrease from the control value, in per cent. Turning to `COc1ccc(C(C)NC(=O)COc2cc(C)c3c(C(C)C)nn(C)c3n2)cn1` (stereo not drawn) [Example 6.28, 2-(3-isopropyl-1,4-dimethyl-1H-pyrazolo[3,4-b]pyridin-6-yloxy)-N-(1-(6-methoxypyridin-3-yl)ethyl)acetamide], the inhibition constant Ki in test [1] came out at 1220 nM. In addition, the inhibition at 10 µM in test [2] amounted to 39%.

Turning to `Cn1nc(-c2ccccc2)c2c(C(F)(F)F)cc(OCC(=O)NC3CCC3)nc21` [Example 1.54, N-cyclobutyl-2-(1-methyl-3-phenyl-4-(trifluoromethyl)-1H-pyrazolo[3,4-b]pyridin-6-yloxy)acetamide], the values for the inhibition at 10 µM in test [1] and in test [2] were 42% and 25%, respectively.

For the compound `Cc1cc(OCC(=O)N[C@H]2CCc3cc(OC(C)C)ccc32)nc2c1c(C1CC1)nn2C` [Example 6.69, (S)-2-(3-cyclopropyl-1,4-dimethyl-1H-pyrazolo[3,4-b]pyridin-6-yloxy)-N-(5-isopropoxy-2,3-dihydro-1H-inden-1-yl)acetamide], the inhibition at 10 µM in test [1] was found to be 31%. Moreover, in test [2], the Ki was 126 nM.

Consider `C[C@H](NC(=O)COc1cc(C(F)(F)F)c2c(-c3ccncc3)nn(C)c2n1)c1ccccc1` [Example 1.25, (S)-2-(1-methyl-3-(pyridin-4-yl)-4-(trifluoromethyl)-1H-pyrazolo[3,4-b]pyridin-6-yloxy)-N-(1-phenylethyl)acetamide], for which the values for the inhibition at 10 µM in test [1] and in test [2] were 52% and 54%, respectively.

Take `Cc1cccc(CNC(=O)COc2cc(C(F)(F)F)c3c(-c4ccccc4)nn(C)c3n2)c1` [Example 1.66, 2-(1-methyl-3-phenyl-4-(trifluoromethyl)-1H-pyrazolo[3,4-b]pyridin-6-yloxy)-N-(3-methylbenzyl)acetamide]: the inhibition at 10 µM in test [1] amounted to 41%; in test [2], 23%.

On to `COc1ccccc1C(C)NC(=O)COc1cc(C(F)(F)F)c2c(-c3ccccc3)nn(C)c2n1` (stereo not drawn) [Example 1.44, N-(1-(2-methoxyphenyl)ethyl)-2-(1-methyl-3-phenyl-4-(trifluoromethyl)-1H-pyrazolo[3,4-b]pyridin-6-yloxy)acetamide], for which the Ki in test [1] stood at 158 nM; in test [2], 274 nM.

Regarding `Cc1cc(OCC(=O)NC(C)c2nc3ccc(Cl)cc3s2)nc2c1c(C1CC1)nn2C` (stereo not drawn) [Example 7.30, N-(1-(6-chlorobenzo[d]thiazol-2-yl)ethyl)-2-(3-cyclopropyl-1,4-dimethyl-1H-pyrazolo[3,4-b]pyridin-6-yloxy)acetamide], in test [1], the inhibition at 10 µM turned out to be 26%. Further, in test [2], the Ki is 938 nM.

For the compound `C[C@H](NC(=O)COc1cc(C(F)(F)F)c2c(C3CCCCC3)nn(C)c2n1)c1ccccc1` [Example 1.51, (S)-2-(3-cyclohexyl-1-methyl-4-(trifluoromethyl)-1H-pyrazolo[3,4-b]pyridin-6-yloxy)-N-(1-phenylethyl)acetamide], the Ki is 364 nM in test [1] and 471 nM in test [2].

As to `Cc1cc(OCC(=O)NCCCc2ccccc2)nc2c1c(C1CC1)nn2C` [Example 6.50, 2-(3-cyclopropyl-1,4-dimethyl-1H-pyrazolo[3,4-b]pyridin-6-yloxy)-N-(3-phenylpropyl)acetamide], the results for the inhibition at 10 µM in test [1] and in test [2] were 42% and 10%, respectively.

As to `CCn1ccc(C(C)NC(=O)COc2cc(C)c3c(C4CC4)nn(C)c3n2)n1` (stereo not drawn) [Example 6.54], the inhibition at 10 µM in test [1] was 29%; in test [2], 44%.

With `CC(NC(=O)COc1cc(C(F)(F)F)c2c(-c3ccccc3)nn(C)c2n1)c1cccnc1` (stereo not drawn) [Example 1.30, 2-(1-methyl-3-phenyl-4-(trifluoromethyl)-1H-pyrazolo[3,4-b]pyridin-6-yloxy)-N-(1-(pyridin-3-yl)ethyl)acetamide], the Ki worked out at 582 nM in test [1] and 970 nM in test [2].

Turning to `Cc1cc(OCC(=O)N[C@@H](C)c2ccccc2)nc2c1c(C1CC1)nn2C` [Example 1.69, (S)-2-(3-cyclopropyl-1,4-dimethyl-1H-pyrazolo[3,4-b]pyridin-6-yloxy)-N-(1-phenylethyl)acetamide], the Ki stood at 938 nM in test [1] and 1010 nM in test [2].

For `COc1ccc([C@@H](C)NC(=O)COc2cc(C(F)(F)F)c3c(-c4ccccc4)nn(C)c3n2)cc1` [Example 1.59, (R)-N-(1-(4-methoxyphenyl)ethyl)-2-(1-methyl-3-phenyl-4-(trifluoromethyl)-1H-pyrazolo[3,4-b]pyridin-6-yloxy)acetamide], the Ki in test [1] worked out at 949 nM; in test [2], 2290 nM.

As for `Cc1cc(OCC(=O)NCc2ccccc2Cl)nc2c1c(-c1ccccc1)nn2C` [Example 1.14, N-(2-chlorobenzyl)-2-(1,4-dimethyl-3-phenyl-1H-pyrazolo[3,4-b]pyridin-6-yloxy)acetamide], the inhibition at 10 µM in test [1] turned out to be 33%. The Ki in test [2] was 422 nM.

With `COc1ccc(C(C)NC(=O)COc2cc(C)c3c(C4CC4)nn(C)c3n2)cc1F` (stereo not drawn) [Example 7.19, 2-(3-cyclopropyl-1,4-dimethyl-1H-pyrazolo[3,4-b]pyridin-6-yloxy)-N-(1-(3-fluoro-4-methoxy-phenyl)ethyl)acetamide], the Ki in test [1] stood at 674 nM; in test [2] it was 2620 nM.

As to `Cc1cc(OCC(=O)NC2CCCc3ncccc32)nc2c1c(C1CC1)nn2C` (stereo not drawn) [Example 7.8, 2-(3-cyclopropyl-1H-dimethyl-1H-pyrazolo[3,4-b]pyridin-6-yloxy)-N-(5,6,7,8-tetrahydroquinolin-5-yl)acetamide], the results for the inhibition at 10 µM in test [1] and in test [2] were 20% and 26%, respectively.

As to `Cc1cnc(CNC(=O)COc2cc(C)c3c(C4CC4)nn(C)c3n2)cn1` [Example 7.2, 2-(3-cyclopropyl-1,4-dimethyl-1H-pyrazolo[3,4-b]pyridin-6-yloxy)-N-((5-methylpyrazin-2-yl)methyl)acetamide], the inhibition at 10 µM was 15% in test [1] and below 10% in test [2].

`Cc1ccnc(C(C)NC(=O)COc2cc(C)c3c(C4CC4)nn(C)c3n2)c1` (stereo not drawn) [Example 7.21, 2-(3-cyclopropyl-1,4-dimethyl-1H-pyrazolo[3,4-b]pyridin-6-yloxy)-N-(1-(4-methylpyridin-2-yl)ethyl)acetamide]: the inhibition at 10 µM was 22% in test [1] and below 10% in test [2].

Take `Cc1ccc([C@H](C)NC(=O)COc2cc(C)c3c(-c4cc(C)nn4C)nn(C)c3n2)cc1` [Example 4.5, (S)-2-(3-(1,3-dimethyl-1H-pyrazol-5-yl)-1,4-dimethyl-1H-pyrazolo[3,4-b]pyridin-6-yloxy)-N-(1-p-tolylethyl)acetamide]: the Ki in test [1] worked out at 923 nM; in test [2], 670 nM.

`Cc1ccc([C@H](C)NC(=O)COc2ccc3c(-c4ccccc4C)nn(C)c3n2)cc1` [Example 6.35, (S)-2-(1-methyl-3-o-tolyl-1H-pyrazolo[3,4-b]pyridin-6-yloxy)-N-(1-p-tolylethyl)acetamide]: the values for the Ki in test [1] and in test [2] were 126 nM and 256 nM, respectively.

Regarding `Cc1cc(OCC(=O)N[C@@H](C)CCc2ccccc2)nc2c1c(C1CC1)nn2C` [Example 7.26, (S)-2-(3-cyclopropyl-1,4-dimethyl-1H-pyrazolo[3,4-b]pyridin-6-yloxy)-N-(4-phenylbutan-2-yl)acetamide], the figures for the Ki in test [1] and in test [2] were 184 nM and 1640 nM, respectively.

`Cc1cc(OCC(=O)NC2CCCC2)nc2c1c(C1CC1)nn2C` [Example 6.46, N-cyclopentyl-2-(3-cyclopropyl-1,4-dimethyl-1H-pyrazolo[3,4-b]pyridin-6-yloxy)acetamide]: the inhibition at 10 µM in test [1] is 26%; in test [2], 16%.
